≈ marks a conversion by molar mass, not a printed value.
What was measured:
Test in all cases: ≥ marks a high value that may be exact or a test limit, other limits are often not marked, values filed in µg/mL are converted to µM
[1] = tested on: Staphylococcus aureus PCM 1944
[2] = tested on: Escherichia coli PCM 2057
[3] = tested on: Salmonella enterica subsp. enterica serovar Typhimurium ATCC 700408
Escherichia coli DC2 = tested on: Escherichia coli DC2
[4] = tested on: Klebsiella pneumoniae DSM 681
Escherichia coli BL21AI = tested on: Escherichia coli BL21AI
[5] = tested on: Escherichia coli DSM 1103
Escherichia coli D31 = tested on: Escherichia coli D31
[6] = tested on: Klebsiella pneumoniae K6 ATCC 700603
[7] = tested on: Micrococcus luteus ATCC 10240

Row | MIC [1] | MIC [2] | MIC [3] | MIC (Escherichia coli DC2) | MIC [4] | MIC (Escherichia coli BL21AI) | MIC [5] | MIC (Escherichia coli D31) | MIC [6] | MIC [7] | SMILES
1 | ≥ 1560 µM | ≥ 1560 µM |  |  |  |  |  |  |  |  | C[C@@H]1NC(=O)[C@H](C)NC(=O)[C@H](CCCCN)NC(=O)[C@@H](N)CSSC[C@@H](C(=O)O)NC(=O)[C@H](Cc2ccccc2)NC1=O [CKAAFC]
2 | ≥ 491 µM | ≥ 491 µM |  |  |  |  |  |  |  |  | CC[C@H](C)[C@H](NC(=O)[C@@H](NC(=O)[C@@H](N)CO)C(C)C)C(=O)NCC(=O)N[C@H]1CSSC[C@@H](C(=O)N[C@@H](Cc2ccccc2)C(=O)N[C@H](C(=O)N[C@@H](CCCCN)C(N)=O)C(C)C)NC(=O)[C@@H]2CCCN2C(=O)[C@H](CCCN=C(N)N)NC(=O)[C@@H]2CCCN2C(=O)[C@@H]2CCCN2C(=O)[C@H]([C@@H](C)CC)NC(=O)[C@H](CO)NC(=O)[C@H](Cc2ccccc2)NC(=O)[C@H]([C@@H](C)O)NC(=O)[C@H](Cc2c[nH]c3ccccc23)NC1=O [SVIGCWTFSIPPRPCFVK]
3 |  |  | 0.936 µM (≈ 2 µg/mL) | 3.66 µM (≈ 7.81 µg/mL) | 7.31 µM (≈ 15.6 µg/mL) | 0.229 µM (≈ 0.49 µg/mL) | 0.459 µM (≈ 0.98 µg/mL) | 30 µM (≈ 64 µg/mL) | 3.74 µM (≈ 8 µg/mL) | 0.459 µM (≈ 0.98 µg/mL) | CC[C@H](C)[C@H](NC(=O)[C@H](CCCN=C(N)N)NC(=O)[C@@H]1CCCN1C(=O)[C@H](Cc1cnc[nH]1)NC(=O)[C@@H]1CCCN1C(=O)[C@@H]1CCCN1C(=O)[C@H](CCCN=C(N)N)NC(=O)[C@@H]1CCCN1C(=O)[C@H](CCCN=C(N)N)NC(=O)[C@@H]1CCCN1C(=O)[C@@H](NC(=O)[C@H](Cc1ccc(O)cc1)NC(=O)[C@@H](NC(=O)[C@@H]1CCCN1C(=O)[C@H](CCCN=C(N)N)NC(=O)[C@H](CC(N)=O)NC(=O)[C@H](CC(N)=O)NC(=O)CN)C(C)C)[C@@H](C)CC)C(N)=O [GNNRPVYIPRPRPPHPRI]
